Entries after “also recorded” stand apart in the source; their conditions may differ.
Key:
[1] = parameters: method as in PMID 34145979; conditions: healthy participants, cited from earlier work
[2] = Safety assessments (adverse events) in healthy participants; assay type: in vivo, human
Experimental: Safety was evaluated based on the incidence and severity of AEs and changes from baseline in clinical laboratory results, vital signs, and ECG parameters. AEs were graded according to Common Terminology Criteria for Adverse Events version 5.0.

[3] = Period 2 human ADME study: plasma PK after oral solution [14C]-mobocertinib; assay type: in vivo
Experimental: (§1) This was a two-period, open-label, single-dose phase 1 study (NCT03811834) conducted at one clinical site (Celerion, Lincoln, Nebraska, USA) in healthy male participants. The primary objective of Period 1 was to determine the absolute bioavailability of mobocertinib following a single oral dose of 160 mg mobocertinib as capsules and a single intravenous (IV) microdose of 50 µg (~ 2 µCi) [^14C]-mobocertinib. The primary objectives of Period 2 were to (1) assess the cumulative excretion of total radioactivity in urine and feces (mass balance); (2) assess the metabolite profile of mobocertinib in plasma, urine, and feces; and (3) characterize the PK of mobocertinib, AP32960, and AP32914 in plasma, whole blood, and urine, and total radioactivity concentration equivalents in plasma and whole blood following a single oral dose of 160 mg (~ 100 µCi) [^14C]-mobocertinib as an oral solution. A sample size of 6 healthy males was selected without statistical considerations and deemed adequate to meet the study objectives. Furthermore, the sample size was limited based on clinical considerations for human ADME studies and to limit exposure to radioactivity.
(§2) After a washout of 8–9 days, participants returned to the clinic for Day − 1 of Period 2. On Day 1 of Period 2, after a fast of ≥ 10 h, participants received a single nominal dose of 160 mg (~ 100 µCi; whole body effective dose of 5.3 mrem for a 70-kg human) [^14C]-mobocertinib as a 70 mL oral solution. The actual doses administered ranged from 161 to 163 mg (92.4 to 93.9 µCi). Participants stayed in the clinic from Day − 1 until a discharge criterion (≥ 80% of the total administered radioactive dose was recovered in urine and feces or excretion of radioactivity in urine and feces combined had declined to ≤ 1% of the total administered dose per day for ≥ 2 consecutive intervals) was met, or up to 10 days postdose. To measure the total radioactivity and concentrations of mobocertinib, AP32960, and AP32914 in whole blood and plasma, 4 blood samples were collected predose, and at 0.5, 1, 2, 3, 4, 5, 6, 8, 12, 24, 36, 48, 72, 96, 120, 144, 168, 192, 216, and 240 h postdose; a fifth blood sample was collected for plasma metabolite profiling at predose and 1, 2, 4, 6, 12, 24, 48, 72, 96, 120, and 168 h postdose. Feces and urine were collected predose (feces within 48 h and urine within 24 h prior to dosing), 0–24 h (urine from 0–12 and 12–24 h), and then at 24-hour intervals up to 240 h postdose or until a discharge criterion was met. […] These 2 participants continued with at-home fecal sample collections. One participant provided fecal samples until Day 13 (264–288 h interval) and one participant provided fecal samples until Day 19 (408–432 h interval), after which they met a discharge criterion.
(§3) Plasma, whole blood, and urine samples were assayed for mobocertinib, AP32960, and AP32914 concentrations using liquid chromatography-tandem mass spectrometry (Q2 Solutions, Ithaca, New York, USA). The analytical range for each analyte was 0.250 to 500 ng/mL in whole blood and plasma, and 1.00 to 1000 ng/mL in urine. […] Urine and fecal samples were assayed for total radioactivity following the IV dose of [^14C]-mobocertinib in Period 1, and whole blood, plasma, urine, and fecal samples were assayed for total radioactivity following the oral dose of [^14C]-mobocertinib in Period 2 using liquid scintillation counting (LSC; Celerion, Lincoln, Nebraska, USA; LLOQs: Period 1 urine: 0.115–0.118 ng eq/g, feces: 0.720–0.759 ng eq/g; Period 2 whole blood: 87.3–112 ng eq/g, plasma: 116–132 ng eq/mL, urine: 37.8–46.8 ng eq/g, feces: 110–336 ng eq/g across participants). Urine and fecal samples collected in Period 1 that had total radioactivity concentration equivalents below the LLOQ of the Celerion LSC assay were sent to Pharmaron for measurement by AMS (LLOQ: urine: 0.0000253–0.00111 ng eq/g; feces: 0.000404–0.0278 ng eq/g across participants). The LSC and AMS assays were not cross-validated. […]

[4] = oral doses ranging from 5 to 180 mg; cited from earlier work
[5] = Period 2 human ADME study: whole blood PK after oral solution [14C]-mobocertinib; assay type: in vivo
Experimental: as §1, §2, §3

[6] = system: EGFRex20ins mutation positive locally advanced or metastatic NSCLC; parameters: method as in doi:10.1016/j.annonc.2023.10.586; conditions: mobocertinib versus chemotherapy, first-line; cited from earlier work
[7] = Period 2, oral solution 160 mg [14C]-mobocertinib, geometric mean (geometric CV%)
[8] = male, human, Period 2, oral solution 160 mg [14C]-mobocertinib, geometric mean (geometric CV%)
[9] = Period 2, oral solution 160 mg [14C]-mobocertinib, whole blood, geometric mean (geometric CV%)
[10] = Period 2, oral solution 160 mg [14C]-mobocertinib, blood-to-plasma, geometric mean (geometric CV%)
[11] = male, human, Period 2, oral solution 160 mg [14C]-mobocertinib, whole blood, geometric mean (geometric CV%)

C=CC(=O)Nc1cc(Nc2ncc(C(=O)OC(C)C)c(-c3cn(C)c4ccccc34)n2)c(OC)cc1N(C)CCN(C)C [Mobocertinib]
decrease of combined molar AUC of mobocertinib and its active metabolites ([1]; coadministration of strong CYP3A inducer rifampin): 95%
increase of combined molar AUC of mobocertinib and its active metabolites ([1]; coadministration of strong CYP3A inhibitor itraconazole): 527%
deaths or serious AEs ([2]; 7 healthy male participants, Periods 1 and 2): no deaths or serious AEs
severity of AEs ([2]; CTCAE version 5.0, both treatment periods): grade 1 (mild)
participants who experienced at least 1 AE ([2]; Period 1): 6
participants who experienced at least 1 AE ([2]; Period 2): 4
overall safety and tolerability ([2]; both treatment periods): generally safe and well-tolerated; also recorded: no new safety signals observed
incidence of most common AEs (constipation, diarrhea, and nausea, each) ([2]; each in 2 of 7 participants): 29%
discontinuation because of AEs ([2]; eructation, nausea, salivary hypersecretion, vomiting on Day 1 of Period 1): One participant discontinued the study early because of multiple AEs
participants who experienced at least 1 AE ([2]; of 7 participants, whole study): 7
t1/2z of total radioactivity ([3]; Period 2, oral solution 160 mg [14C]-mobocertinib, exceeds duration of sampling, approximate estimate, geometric mean (geometric CV%)): ~281 h
CL/F [3, 7]: 169 (38.4) L/h
Molar AUC∞ ratio (analyte vs. total radioactivity) [3, 7]: 0.00172 (31.1)
tmax ([3]; Period 2, single oral solution 160 mg (~100 µCi) [14C]-mobocertinib, median (range)): 6.0 (3.0–6.0) h
AUC(0-inf) [3, 8]: 956 ng·h/mL
AUC(0-t) [3, 8]: 945 ng·h/mL
Cmax [3, 8]: 51 ng/mL
Vd/F ([3]; male, human, Period 2, oral solution 160 mg [14C]-mobocertinib, geometric mean (geometric CV%), read-out: Vz/F): 5560 L
half-life ([3]; male, human, Period 2, oral solution 160 mg [14C]-mobocertinib, geometric mean (geometric CV%), read-out: t1/2z (converted)): 22.8 h
median time to maximum observed concentration (tmax) [4]: 4 h
geometric mean AUC∞ lower in whole blood compared to plasma ([5]; Period 2, oral solution 160 mg [14C]-mobocertinib): 24%
CL/F [5, 9]: 222 (32.6) L/h
Molar AUC∞ ratio (analyte vs. total radioactivity) [5, 9]: 0.00224 (28.3)
t1/2z [5, 9]: 20.5 (25.4) h
B:P Ratio AUC∞ [5, 10]: 0.763 (17.7)
B:P Ratio Cmax [5, 10]: 0.794 (17.1)
tmax ([5]; Period 2, single oral solution 160 mg (~100 µCi) [14C]-mobocertinib, whole blood, median (range)): 5.0 (2.0–6.0) h
blood plasma ratio ([5]; male, human, whole blood and plasma, Period 2, oral solution 160 mg [14C]-mobocertinib, range over time, read-out: arithmetic mean blood-to-plasma (B:P) concentration ratios): 0.6 to 1.04
AUC(0-inf) [5, 11]: 729 ng·h/mL
AUC(0-t) [5, 11]: 718 ng·h/mL
Cmax [5, 11]: 40.5 ng/mL
Vd/F ([5]; male, human, Period 2, oral solution 160 mg [14C]-mobocertinib, whole blood, geometric mean (geometric CV%), read-out: Vz/F): 6550 L
primary endpoint of phase 3 study [6]: not met

— paper PMC11327196, “A phase 1 study to assess the absolute bioavailability, mass balance, pharmacokinetics, metabolism, and excretion of [^14C]-mobocertinib, an oral inhibitor of EGFR exon 20 insertion mutations, in healthy participants” (Investigational New Drugs, 2024)
